Source: patent US12629384B2, “Use of 8,9-dihydrocannabidiol compounds” (The Regents of the University of California, priority 2019, dated 2026)

Assays:
[1] = system: PTZ-induced generalised seizures; experiment: acute PTZ-induced generalised seizures in rat (antiseizure study); type: in vivo; settings: for maximum seizure severity, median (IQR) / percentage of animals that exhibited tonic-clonic seizures: 200 mg kg^-1 i.p. 1 h before PTZ 85 mg kg^-1; for maximum seizure severity, median (IQR): vehicle median 5, P<0.001 vs vehicle; for percentage of animals that exhibited tonic-clonic seizures: vs vehicle treated group, P<0.05
Procedure: Animals: Male, Wistar Han rats (70-110 g; Harlan, Bicester, UK) were housed on a 12 h light-dark cycle, with food and water available ad libitum. All experiments were conducted in accordance with the UK Animals (Scientific Procedures) Act, 1986 and ARRIVE guidelines for reporting experiments involving animals; 60 rats were used in total.
Drug administration: Animals were randomly divided into 5 groups of 12 animals per group and received either vehicle (ethanol, Cremophor EL and saline (0.9% w/v NaCl), 2:1:17), a positive control (cannabidiol; CBD; 200 mg kg^−1; Sigma-Aldrich, UK) or 8,9-dihydrocannabidiol (H2CBD; 50, 100 or 200 mg kg^−1) via i.p. injection 1 h prior to administration of the convulsant agent to achieve brain cannabinoid Tmax. The convulsant agent pentylenetetrazole (PTZ; 85 mg kg^−1 in 0.9% w/v NaCl) was administered i.p. 1 h after drug or vehicle treatment. Seizure activity was video recorded for 30 min and video records blinded before offline review and coding using a modified Racine scale (0, normal behaviour; 0.5, abnormal behaviour; 1, isolated myoclonic jerk; 2, atypical clonic seizure; 3, bilateral forelimb clonus; 3.5, bilateral forelimb clonus with body twist; 4, tonic-clonic seizure with suppressed tonic phase; 5, fully developed tonic-clonic seizure).
(§1) Statistics: Statistical procedures were performed using GraphPad Prism 7 (GraphPad Software, Inc., San Diego, CA, USA).
In the present study, 60 male, Wistar Han rats were randomly divided into 5 groups of 12 animals each and received either vehicle (ethanol, Cremophor EL, 0.9% w/v saline; 2:1:17), vehicle plus a positive control (CBD; 200 mg kg^−1), or vehicle plus H2CBD (50, 100, or 200 mg kg^−1) via intraperitoneal injection one hour prior to administration of the convulsant agent pentylenetetrazole (PTZ; 85 mg kg^−1 in 0.9% w/v saline).

[2] = blood and brain concentrations post-mortem by HPLC; type: in vivo, rat; settings: samples 90 minutes after administration
Procedure: Assessment of bioanalytes: Chemicals and reagents. 4,4-Dichlorodiphenyltrichloroethane (DDT, CAS: 50-29-3) was used as the internal analytical standard (IS). HPLC grade n-hexane, acetonitrile, water and ascorbic acid were purchased from Sigma Aldrich (UK) and Fisher Scientific.
Analysis of plasma and brain samples: Stock standard solutions of CBD, H2CBD and DDT were prepared in acetonitrile (5 mg/ml and 1 mg/mL) and stored at −20° C. until use. These were further diluted in acetonitrile:water (62:38), to achieve calibration concentrations of 0.1, 0.2, 0.5, 1.5, 10 μg/mL. Plasma samples were prepared for HPLC using a previously validated method. Briefly, DDT ([…]) was added to 150 μL of rat plasma sample as internal standard and plasma proteins were precipitated by the addition of 600 μL of ice cold acetonitrile followed by water (600 μL), with 1 min vortexing between additions. n-Hexane (3 mL) was added to each tube and following a 5 min vortex, tubes were centrifuged at 1160×g for 15 min at 10° C. and the upper organic layer was carefully decanted by glass pipette and retained. The organic layer was evaporated to dryness under a stream of nitrogen at room temperature and reconstituted in 150 μL of the mixture of acetonitrile and water (62:38) prior to HPLC analysis.
For brain analysis, brains were weighed and 1.5× ice-cold solvent (90% acetonitrile; 10% water; 0.1% ascorbic acid) (w/v) was added followed by homogenization for 1 min. DDT (50 μg/ml) was added to each homogenized brain tissue as internal standard, samples were mixed and allowed to equilibrate overnight at −20° C. Samples were then centrifuged at 3500 rpm for 15 min and the top layer retained. Samples were dried by SpeedVac concentrator at room temperature (Savant SPD131DDA, ThermoFisher Scientific, UK) and reconstituted in 150 μL of the mixture of acetonitrile and water (62:38) for HPLC analysis.
HPLC analysis: An Agilent 1200 series HPLC (Hewlett-Packard, Palo Alto, CA, USA) equipped with a photodiode array detector was used for analysis. 30 μl of all samples were injected and separation was achieved using an ACE C18-PFP 150 mm×4.6 mm, 3 μm particle size column (Hichrom Ltd., Reading, UK), protected by an ACE C18-PFP […] guard cartridge. The mobile phase was a mixture of acetonitrile and water in a ratio of 62:38 (v/v). The flow rate was set at 1 mL/min and column temperature was maintained at 55° C. The absorbance of all compounds of interest (CBD and DH-CBD) was monitored at 220 nm.
as §1

[3] = system: rodent behavior; experiment: EPM test; type: in vivo, rat; settings: 200 mg kg^-1 i.p., 45 minutes post injection; drug vs vehicle; p=0.49
Procedure: (§2) 12 adult male Sprague Dawley rats were divided at random into two groups of 6 animals each and received either vehicle (Kolliphor RH-40, dmso, 0.9% w/v saline, 1:2:7) or vehicle plus H2CBD (200 mg kg^−1), administered by intraperitoneal injection. The vehicle differed in this case from the anti-seizure study to avoid the potentially confounding effect of alcohol. The number of animals was also limited to the lowest population necessary to establish an effect at the maximum dosage of drug. At 45 minutes post vehicle and drug injections, rats were placed in the center of the EPM and time spent on the open versus closed arms of the maze was recorded. After an interval of two weeks, the same 12 rats were again divided at random into two groups of 6 animals each and dosed as above. Spontaneous locomotor activity was measured 45 minutes after injection by placing the animals in the center of a 16″×16″ arena. Free movement was allowed for 30 minutes and recorded using an automated activity monitoring system.

[4] = system: rodent behavior; experiment: open field test, spontaneous locomotor activity; type: in vivo, rat
Procedure: as §2

[5] = system: cytochrome P450; settings: hepatic microsomal metabolism; consistent with CBD; cited from earlier work
[6] = system: murine macrophages; settings: consistent with CBD; cited from earlier work
[7] = in contrast to CBD; cited from earlier work
[8] = simulated gastric fluid, within one hour; cited from earlier work

Compound: CCCCCc1cc(O)c([C@@H]2C=C(C)CC[C@H]2C(C)C)c(O)c1 (relative stereo) [Example H2CBD, 2-(6-Isopropyl-3-methylcyclohex-2-en-1-yl)-5-pentylbenzene-1,3-diol]
- maximum seizure severity, median (IQR) [1]: 2 (0.25-4.25 IQR) Racine scale
- percentage of animals that exhibited tonic-clonic seizures [1]: significantly fewer animals
- anticonvulsant action ([1]; 50, 100, 200 mg kg^-1 i.p., maximal protective effect comparable to matching dose of CBD): dose-dependent anticonvulsant action
- blood concentration vs vehicle treated group ([2]; 100 mg/kg i.p., P<0.05): significant concentrations
- blood concentration vs vehicle treated group ([2]; 200 mg/kg i.p., P<0.01): significant concentrations
- brain tissue concentration vs vehicle treated group ([2]; 200 mg/kg i.p., P<0.01): significant concentrations
- percent time spent on the open arms [3]: No statistically significant differences
- horizontal distance traveled ([4]; 200 mg kg^-1 i.p., 30 min from 45 minutes after injection, drug vs vehicle, P=0.95): no statistically significant differences
- time in the arena center ([4]; 200 mg kg^-1 i.p., 30 min from 45 minutes after injection, drug vs vehicle, p=0.14): no statistically significant differences
- vertical activity ([4]; 200 mg kg^-1 i.p., 30 min from 45 minutes after injection, drug vs vehicle, p=0.25): no statistically significant differences
- behavioral effects (EPM and open field overall) ([4]; high dosage, 200 mg kg^-1): no measurable behavioral effects
- effect on cytochrome P450 [5]: inhibitory effect
- antioxidant activity [6]: antioxidant activity
- sedative activity [7]: little if any evidence of sedative activity

Compound: C=C(C)[C@@H]1CCC(C)=C[C@H]1c1c(O)cc(CCCCC)cc1O [CBD, cannabidiol]
- maximum seizure severity, median (IQR) [1]: 2 (0.25-3.75 IQR) Racine scale
- percentage of animals that exhibited tonic-clonic seizures [1]: significantly fewer animals
- brain tissue concentration vs vehicle treated group ([2]; 200 mg/kg i.p., P<0.01): significant concentrations
- degradation mainly to Δ8- and Δ9-THCs [8]: nearly complete degradation
